Laboratory results from US20240376154A1, “BIS-INTERCALATING PEPTIDES, CONJUGATES AND METHODS OF USE” (ZYMEWORKS BC INC., priority 2023, published 2024).

Columns and labels:
[1] = system: tumour cells (at least 4 of a panel of ovarian, breast, lung, pancreatic, placenta, colon cell lines); experiment: In vitro cytotoxicity (cell proliferation, CellTiter-Glo), average over tumour cell line panel; format: cell-based; details: average pIC50 on all cell lines tested; 5 nights incubation; CellTiter-Glo
Description: The ability of representative compounds of Formula I to inhibit proliferation of tumour cells in vitro was evaluated in at least 4 of the following cell lines: OVCAR-3 (ovarian, ATCC), SKOV-3 (ovarian, ATCC), IGROV-1 (ovarian, national research council of Canada (NRC)), OV-90 (ovarian, ATCC), OVKATE (Ovarian, Japanese Collection of Research Bioresources (JCRB) (JCRB1044)), JIMT-1 (breast, NRC), SK-BR-3 (breast, ATCC), T-47D (breast, ATCC), ZR-75-1 (breast, ATCC), MDA-MB-468 (breast, AddexBio), BT-20 (breast, ATCC), BT-474 (breast, NRC), MDA-MB-175 (breast, AddexBio), A549 (lung, collaborator), NCI-H226 (lung, NRC), NCI-H661 (lung, NRC), NCI-H1573 (lung, ATCC). NCI-H1563 (lung, ATCC), H358 (lung, collaborator), EBC-1 (lung, Xenotech), H1299 (lung, NRC), NCI-H292 (lung, ATCC), HCC817 (lung, ATCC), NCI-H441 (lung, ATCC), MIA-PaCa-2 (pancreatic, ATCC), BxPC-3 (pancreatic, ATCC), Panc-1 (pancreatic, ATCC), AsPC-1 (pancreatic, ATCC), JEG-3 (placenta, AddexBio), HT-29 (colon, ATCC).
Cells were cultured per vendor instructions and in log-phase growth were detached by brief incubation in 0.05% trypsin, then resuspended in respective culturing media at 20,000 cells/mL (except for ZR-75 cells, which were resuspended at 10,000 cells/mL). 50 μL/well (˜1000 cells/well) were transferred to sterile tissue culture (TC)-treated 384-well plates (ThermoFisher Scientific, Catalogue #164610) and incubated overnight at 37° C. with 5% CO2 to allow the cells to adhere to the plate surface. The next day, in a sterile, V-bottom, 96-well plate, test articles were titrated 1:3 in complete growth medium, creating a 10-point dose response titration with compounds at 3.5-times the desired final concentration. 20 μL from each dilution were added to the 384-well plate containing the seeded cells and these plates were incubated at 37° C. with 5% CO2 for 5 nights. Cell viability was quantified by first incubating with 15 μL/well of CellTiter-Glo® (Promega, Catalogue #G7572) for 30 minutes, then measuring luminescence with a microplate luminometer (BioTek® Synergy™ H1 Microplate Reader). IC50 values were determined by GraphPad Prism (GraphPad Software, San Diego, CA).
The results are presented in Table 7.1 and discussed in Example 7. Table 7.1 presents the results as average pIC50 values. pIC50=−log (IC50), thus, for example, pIC50=9 is equivalent to IC50=1 nM, and pIC50=6 is equivalent to IC50=1 μM.

[2] = Lipophilicity by experimental HPLC retention time; format: physicochemical; details: HPLC retention time as measure of lipophilicity; C18, 10 to 90% CH3CN/H2O with 0.1% FA over 25 min
Description: The ability to kill neighboring cells (i.e. bystander effect) is an important property for ADC payloads. For a payload comprising a compound of Formula I to be capable of bystander killing, membrane permeability (or transport) is required and the ability of compounds of Formula I to cross cell membranes and exert a cytotoxic effect was expected to be heavily influenced by lipophilicity.
Compounds were analyzed using an Agilent 1260 HPLC (Agilent Technologies, Inc., Santa Clara, CA) equipped with a Diode array detector and using a Phenomenex Kinetex EVO C18 150×4.6, 2.6 μm column (Phenomenex, Torrance, CA), eluting with 10 to 90% CH3CN/H2O with 0.1% FA over 25 min.

herring sperm DNA = experiment: DNA melting temperature by differential scanning calorimetry (DSC); format: binding; details: for DNA melt (° C.): DSC, herring sperm DNA, DNA melting temperature = 68° C.; for DNA binding (in words): only DSC data in Table 7.1
Description: Representative compounds prepared as described in Example 2 were assessed in two complementary DNA-binding assays. Increased melting temperature of herring sperm DNA was measured using differential scanning calorimetry (DSC) and binding kinetics were determined by surface plasmon resonance (SPR) using a short DNA hairpin sequence.
DSC experiments were conducted as described in Leng, 2003, Nucleic Acids Res., 31 (21): […], using a Nano DSC (TA Instruments, New Castle, DE) and analyzed using the NanoAnalyze™ software package. Herring sperm DNA solution (Invitrogen 15634017, 10 mg/mL) was diluted to 1 mg/mL (1.4 mM base pair) in BPE buffer (6 mM Na2HPO4, 2 mM NaH2PO4, 1 mM Na4EDTA, pH 7.0). Test articles (20 μL, 10 mM in DMSO) were added and allowed reach equilibrium binding (>3 h), any insoluble material was removed by low-speed centrifugation, then samples were heated from 25 to 110° C. at a scan rate of 1° C./min. Melting curves were plotted and melting temperature was determined using NanoAnalyze™.

[3] = Stability in female mouse plasma; format: in vitro ADME; details: female, mouse, plasma, 37° C., 24 h
Description: The stability of exemplary compounds of general Formula I in mouse plasma was evaluated as follows.
Compounds were incubated at 1 μM in duplicate in female mouse plasma, 250 μL final volume, at 37° C. for 24 h. Aliquots were sampled at 0, 15, 30, 60, 120, 240, 480 and 1440 min. Proteins were precipitated by addition of 5 volumes of cold methanol. After centrifugation 10000×g for 10 min, the residual concentration of compound in the supernatant was measured using an appropriate LC-MS/MS method. The measured concentrations were expressed as a function of time through a one-phase decay exponential regression calculated using GraphPad Prism software (GraphPad Software, Inc.) to generate the plasma half-life for each compound.

Row | Compound | pIC50 (average) [1] | HPLC [2] | DNA melt (° C.) (herring sperm DNA) | DNA binding (in words) (herring sperm DNA) | half-life at 1 μM [3]
1 | CC(C)[C@H]1C(=O)NC[C@@H](NC(=O)c2nc3ccccc3cc2O)C(=O)N2CCCC[C@H]2C(=O)NCC(=O)N(C)CC(=O)N2CCCC[C@H]2C(=O)NC[C@@H](NC(=O)c2nc3ccccc3cc2O)C(=O)N2CCCC[C@H]2C(=O)NCC(=O)N(C)CC(=O)N1C [Compound 82] | 8.0 | 16.4 min | 92 °C | – | –
2 | CC(C)[C@H]1C(=O)NC[C@@H](NC(=O)c2nc3ccccc3cc2O)C(=O)N2CCCC[C@H]2C(=O)NCC(=O)N(C)CC(=O)N2CCCCC[C@H]2C(=O)NC[C@@H](NC(=O)c2nc3ccccc3cc2O)C(=O)N2CCCC[C@H]2C(=O)NCC(=O)N(C)CC(=O)N1C [Compound 88, N,N′-((5aS,9R,15aS,24S,28R,34aS)-24-isopropyl-20,23,39-trimethyl-6,10,16,19,22,25,29,35,38,41-decaoxotetracontahydro-1H,12H-azepino[1,2-j]dipyrido[1,2-a:1′,2′-q][1,4,7,10,13,17,20,23,26,29]decaazacyclodotriacontine-9,28-diyl)bis(3-hydroxyquinoline-2-carboxamide)] | 8.5 | 16.4 min | 88 °C | – | –
3 | CC(C)[C@H]1C(=O)NC[C@@H](NC(=O)c2nc3ccccc3cc2O)C(=O)N2CCCC[C@H]2C(=O)NCC(=O)N(C)CC(=O)N(C)[C@@H](C2CCCCC2)C(=O)NC[C@@H](NC(=O)c2nc3ccccc3cc2O)C(=O)N2CCCC[C@H]2C(=O)NCC(=O)N(C)CC(=O)N1C [Compound 97, N,N′-((7R,11S,19aS,26R,30S,38aS)-11-cyclohexyl-30-isopropyl-12,15,31,34-tetramethyl-6,10,13,16,19,25,29,32,35,38-decaoxohexatriacontahydro-2H,6H-dipyrido[1,2-a:1′,2′-q][1,4,7,10,13,17,20,23,26,29]decaazacyclodotriacontine-7,26-diyl)bis(3-hydroxyquinoline-2-carboxamide)] | 8.4 | 18.9 min | 86 °C | – | –
4 | CC(C)[C@H]1COC[C@@H](NC(=O)c2nc3ccccc3cc2O)C(=O)N2CCCC[C@H]2C(=O)NCC(=O)N(C)CC(=O)N(C)[C@@H](C(C)C)COC[C@@H](NC(=O)c2nc3ccccc3cc2O)C(=O)N2CCCC[C@H]2C(=O)NCC(=O)N(C)CC(=O)N1C [Compound 172, N,N′-((7R,11S,19aS,26R,30S,38aS)-11,30-diisopropyl-12,15,31,34-tetramethyl-6,13,16,19,25,32,35,38-octaoxodotriacontahydro-2H,6H,10H,25H-dipyrido[2,1-b1: 2′,1′-l][1,17]dioxa[4,7,10,13,20,23,26,29]octaazacyclodotriacontine-7,26-diyl)bis(3-hydroxyquinoline-2-carboxamide)] | 7.9 | 18.2 min | 91 °C | – | –
5 | CN1CC(=O)N2CCCC[C@H]2COC[C@@H](NC(=O)c2nc3ccccc3cc2O)C(=O)N2CCCC[C@H]2C(=O)NCC(=O)N(C)CC(=O)N2CCCC[C@H]2C(=O)NC[C@@H](NC(=O)c2nc3ccccc3cc2O)C(=O)N2CCCC[C@H]2C(=O)NCC1=O [Compound 187, N,N′-((7R,10aS,22aS,29R,32aS,44aS)-18,40-dimethyl-6,16,19,22,28,32,38,41,44-nonaoxodotetracontahydro-6H-tetrapyrido[2,1-b1: 2′,1′-c: 2″,1″-1:2′″,1′″-s][1]oxa[4,7,10,13,17,20,23,26,29]nonaazacyclodotriacontine-7,29-diyl)bis(3-hydroxyquinoline-2-carboxamide)] | 8.0 | 16.6 min | 94 °C | – | –
6 | CC(C)[C@H]1COC[C@@H](NC(=O)c2nc3ccccc3cc2O)C(=O)N2CCCC[C@H]2C(=O)NCC(=O)N(C)CC(=O)N(C)[C@@H](C(C)C)C(=O)OC[C@@H](NC(=O)c2nc3ccccc3cc2O)C(=O)N2CCCC[C@H]2C(=O)NCC(=O)N(C)CC(=O)N1C [Compound 203, N,N′-((7R,11S,19aS,26R,30S,38aS)-11,30-diisopropyl-12,15,31,34-tetramethyl-6,10,13,16,19,25,32,35,38-nonaoxodotriacontahydro-2H,6H,10H,25H-dipyrido[2,1-b1: 2′,1′-1][1,17]dioxa[4,7,10,13,20,23,26,29]octaazacyclodotriacontine-7,26-diyl)bis(3-hydroxyquinoline-2-carboxamide)] | 8.5 | 20.2 min | 96 °C | – | –
7 | CC(C)[C@H]1C(=O)NC[C@@H](NC(=O)c2nc3ccccc3cc2O)C(=O)N2CCCC[C@H]2C(=O)NCCOCC(=O)N(C)[C@@H](C(C)C)C(=O)NC[C@@H](NC(=O)c2nc3ccccc3cc2O)C(=O)N2CCCC[C@H]2C(=O)NCCOCC(=O)N1C [Compound 404, N,N′-((7R,11S,19aS,26R,30S,38aS)-11,30-diisopropyl-12,31-dimethyl-6,10,13,19,25,29,32,38-octaoxodotriacontahydro-2H,6H,16H,25H-dipyrido[1,2-a1: 1′,2′-k][1,17]dioxa[4,7,11,14,20,23,27,30]octaazacyclodotriacontine-7,26-diyl)bis(3-hydroxyquinoline-2-carboxamide)] | Inactive | 16.0 min | 68^1 °C | did not demonstrate measurable DNA binding | –
8 | O=C(N[C@@H]1CNC(=O)[C@@H]2CCCCN2C(=O)COCCNC(=O)[C@@H]2CCCCN2C(=O)[C@H](NC(=O)c2nc3ccccc3cc2O)CNC(=O)[C@@H]2CCCCN2C(=O)COCCNC(=O)[C@@H]2CCCCN2C1=O)c1nc2ccccc2cc1O [Compound 409, N,N′-((7R,10aS,22aS,29R,32aS,44aS)-6,10,16,22,28,32,38,44-octaoxotetracontahydro-2H,19H-tetrapyrido[1,2-a1: 1′,2′-d: 1″,2″-k: 1′″,2′″-t][1,17]dioxa[4,7,11,14,20,23,27,30]octaazacyclodotriacontine-7,29-diyl)bis(3-hydroxyquinoline-2-carboxamide)] | inactive | 16.1 min | 68^1 °C | did not demonstrate measurable DNA binding | –
9 | CCOC(=O)[C@H](CCc1ccccc1)N[C@@H](C)C(=O)N1CCC[C@H]1C(=O)O [Enalapril, reference compound] | – | – | – | – | 2.7 h
